Measurements reported in patent US10004701B2, “Methods and compositions for treating infection” (UNIVERSITY OF ROCHESTER, priority 2012, dated 2018).
Counter-ions that a name gives are not always drawn. Like-named read-outs stand apart in the source and are kept apart here.

Columns and labels:
Experiment in all cases: AK assay 384-well format, Prestwick library screening
E. faecium = type: cell-based, Enterococcus faecium; conditions: 50 μM final drug concentration; for fold induction at 50 µM: Enterococcus faecium, 3 h
[1] = test system: A. baumannii strain 98-37-09; type: cell-based, Acinetobacter baumannii; conditions: 50 μM final drug concentration; for fold induction at 50 µM: Acinetobacter baumannii, 983709, 3 h
E. cloacae = type: cell-based, Enterobacter cloacae; conditions: 50 μM final drug concentration; for fold induction at 50 µM: Enterobacter cloacae, 3 h
[2] = test system: S. aureus strain USA300-0114; type: cell-based, Staphylococcus aureus; conditions: 50 μM final drug concentration; for fold induction at 50 µM: Staphylococcus aureus, USA300, 3 h
P. aeruginosa = type: cell-based, Pseudomonas aeruginosa; conditions: 50 μM final drug concentration; for fold induction at 50 µM: Pseudomonas aeruginosa, 3 h
K. pneumoniae = type: cell-based, Klebsiella pneumoniae; conditions: 50 μM final drug concentration; for fold induction at 50 µM: Klebsiella pneumoniae, 3 h
E. coli = type: cell-based, Escherichia coli; conditions: 50 μM final drug concentration; for fold induction at 50 µM: Escherichia coli, 3 h
[3] = planktonic, cutoff for positive-scoring molecules 3-fold increase
[4] = planktonic, cutoff for positive-scoring molecules 3-fold increase, read-out: AK-based Prestwick Library Screening Results, E. faecium (fold increase in extracellular AK activity)
[5] = planktonic, cutoff for positive-scoring molecules 3-fold increase, read-out: AK-based Prestwick Library Screening Results, A. baumannii (fold increase in extracellular AK activity)
[6] = planktonic, cutoff for positive-scoring molecules 3-fold increase, read-out: AK-based Prestwick Library Screening Results, E. cloacae (fold increase in extracellular AK activity)
[7] = planktonic, cutoff for positive-scoring molecules 3-fold increase, read-out: AK-based Prestwick Library Screening Results, S. aureus (fold increase in extracellular AK activity)
[8] = planktonic, cutoff for positive-scoring molecules 3-fold increase, read-out: AK-based Prestwick Library Screening Results, P. aeruginosa (fold increase in extracellular AK activity)
[9] = planktonic, cutoff for positive-scoring molecules 3-fold increase, read-out: AK-based Prestwick Library Screening Results, K. pneumoniae (fold increase in extracellular AK activity)
[10] = planktonic, cutoff for positive-scoring molecules 3-fold increase, read-out: AK-based Prestwick Library Screening Results, E. coli (fold increase in extracellular AK activity)
[11] = cutoff for positive-scoring molecules 3-fold increase
[12] = 384-well format, cutoff for positive-scoring molecules 3-fold increase, read-out: AK-based Prestwick Library Screening Results, E. faecium (increase in extracellular AK activity)
[13] = 384-well format, cutoff for positive-scoring molecules 3-fold increase, read-out: AK-based Prestwick Library Screening Results, A. baumannii (increase in extracellular AK activity)
[14] = 384-well format, cutoff for positive-scoring molecules 3-fold increase, read-out: AK-based Prestwick Library Screening Results, E. cloacae (increase in extracellular AK activity)
[15] = 384-well format, cutoff for positive-scoring molecules 3-fold increase, read-out: AK-based Prestwick Library Screening Results, S. aureus (increase in extracellular AK activity)
[16] = 384-well format, cutoff for positive-scoring molecules 3-fold increase, read-out: AK-based Prestwick Library Screening Results, P. aeruginosa (increase in extracellular AK activity)
[17] = 384-well format, cutoff for positive-scoring molecules 3-fold increase, read-out: AK-based Prestwick Library Screening Results, K. pneumoniae (increase in extracellular AK activity)
[18] = 384-well format, cutoff for positive-scoring molecules 3-fold increase, read-out: AK-based Prestwick Library Screening Results, E. coli (increase in extracellular AK activity)

CN1[C@@H]2CC[C@H]1C[C@@H](O)C2 [Tropine]
fold induction at 50 µM (E. faecium; planktonic E. faecium, […], read-out: AK-based Prestwick library screening result, E. faecium (fold increase in extracellular AK activity)): 0.9 | fold induction at 50 µM ([1]; planktonic A. baumannii, […], read-out: AK-based Prestwick library screening result, A. baumannii (fold increase in extracellular AK activity)): 0.8 | fold induction at 50 µM (E. cloacae; planktonic E. cloacae, […], read-out: AK-based Prestwick library screening result, E. cloacae (fold increase in extracellular AK activity)): 1.2 | fold induction at 50 µM ([2]; planktonic S. aureus, […], read-out: AK-based Prestwick library screening result, S. aureus (fold increase in extracellular AK activity)): 0.7 | fold induction at 50 µM (P. aeruginosa; planktonic P. aeruginosa, […], read-out: AK-based Prestwick library screening result, P. aeruginosa (fold increase in extracellular AK activity)): 0.8 | fold induction at 50 µM (K. pneumoniae; planktonic K. pneumoniae, […], read-out: AK-based Prestwick library screening result, K. pneumoniae (fold increase in extracellular AK activity)): 0.8 | fold induction at 50 µM (E. coli; planktonic E. coli, […], read-out: AK-based Prestwick library screening result, E. coli (fold increase in extracellular AK activity)): 0.9

CN1[C@@H]2CC[C@H]1C[C@@H](OC(=O)c1c[nH]c3ccccc13)C2 [Tropisetron HCl]
fold induction at 50 µM (E. faecium; planktonic, cutoff for positive 3-fold increase, read-out: AK-based Prestwick Library Screening Results, E. faecium (fold increase in extracellular AK activity)): 1 | fold induction at 50 µM ([1]; planktonic, cutoff for positive 3-fold increase, read-out: AK-based Prestwick Library Screening Results, A. baumannii (fold increase in extracellular AK activity)): 1.3 | fold induction at 50 µM (E. cloacae; planktonic, cutoff for positive 3-fold increase, read-out: AK-based Prestwick Library Screening Results, E. cloacae (fold increase in extracellular AK activity)): 1.3 | fold induction at 50 µM ([2]; planktonic, cutoff for positive 3-fold increase, read-out: AK-based Prestwick Library Screening Results, S. aureus (fold increase in extracellular AK activity)): 0.9 | fold induction at 50 µM (P. aeruginosa; planktonic, cutoff for positive 3-fold increase, read-out: AK-based Prestwick Library Screening Results, P. aeruginosa (fold increase in extracellular AK activity)): 1.1 | fold induction at 50 µM (K. pneumoniae; planktonic, cutoff for positive 3-fold increase, read-out: AK-based Prestwick Library Screening Results, K. pneumoniae (fold increase in extracellular AK activity)): 0.8 | fold induction at 50 µM (E. coli; planktonic, cutoff for positive 3-fold increase, read-out: AK-based Prestwick Library Screening Results, E. coli (fold increase in extracellular AK activity)): 1.1

COc1cc2c3cc1Oc1cc(ccc1O)C[C@@H]1c4c(cc(OC)c(O)c4Oc4ccc(cc4)C[C@@H]3N(C)CC2)CC[N+]1(C)C.Cl.O.O.O.O.O.[Cl-] [Tubocurarine chloride pentahydrate (+)]
AK-based Prestwick Library Screening Results: E. faecium (increase in extracellular AK activity) (E. faecium; planktonic E. faecium, 384-well, […]): 0.9 | AK-based Prestwick Library Screening Results: A. baumannii (increase in extracellular AK activity) ([1]; planktonic A. baumannii, 384-well, […]): 0.7 | AK-based Prestwick Library Screening Results: E. cloacae (increase in extracellular AK activity) (E. cloacae; planktonic E. cloacae, 384-well, […]): 0.6 | AK-based Prestwick Library Screening Results: S. aureus (increase in extracellular AK activity) ([2]; planktonic S. aureus, 384-well, […]): 0.5 | AK-based Prestwick Library Screening Results: P. aeruginosa (increase in extracellular AK activity) (P. aeruginosa; planktonic P. aeruginosa, 384-well, […]): 0.6 | AK-based Prestwick Library Screening Results: K. pneumoniae (increase in extracellular AK activity) (K. pneumoniae; planktonic K. pneumoniae, 384-well, […]): 0.6 | AK-based Prestwick Library Screening Results: E. coli (increase in extracellular AK activity) (E. coli; planktonic E. coli, 384-well, […]): 0.7

CO[C@@H]1C=C2CCN(C)[C@@H]2C2c3cc4c(cc3C(=O)OC21)OCO4.O=[N+]([O-])O (some centres unmarked) [Ungerine nitrate]
AK-based Prestwick Library Screening Results, E. faecium (fold increase in extracellular AK activity) (E. faecium; [3]): 1.0 | AK-based Prestwick Library Screening Results, A. baumannii (fold increase in extracellular AK activity) [1, 3]: 1.1 | AK-based Prestwick Library Screening Results, E. cloacae (fold increase in extracellular AK activity) (E. cloacae; [3]): 1.4 | AK-based Prestwick Library Screening Results, S. aureus (fold increase in extracellular AK activity) [2, 3]: 1.2 | AK-based Prestwick Library Screening Results, P. aeruginosa (fold increase in extracellular AK activity) (P. aeruginosa; [3]): 1.1 | AK-based Prestwick Library Screening Results, K. pneumoniae (fold increase in extracellular AK activity) (K. pneumoniae; [3]): 1.0 | AK-based Prestwick Library Screening Results, E. coli (fold increase in extracellular AK activity) (E. coli; [3]): 1.3

COc1ccccc1N1CCN(CCCNc2cc(=O)n(C)c(=O)n2C)CC1 [Urapidil hydrochloride]
fold induction at 50 µM (E. faecium; [4]): 0.9 | fold induction at 50 µM [1, 5]: 1 | fold induction at 50 µM (E. cloacae; [6]): 1.1 | fold induction at 50 µM [2, 7]: 0.9 | fold induction at 50 µM (P. aeruginosa; [8]): 1 | fold induction at 50 µM (K. pneumoniae; [9]): 0.7 | fold induction at 50 µM (E. coli; [10]): 1

C[C@H](CCC(=O)O)[C@H]1CC[C@H]2[C@@H]3[C@@H](O)C[C@@H]4C[C@H](O)CC[C@]4(C)[C@H]3CC[C@]12C [Urosiol]
AK-based Prestwick Library Screening Results, E. faecium (fold increase in extracellular AK activity) (E. faecium; [11]): 1.0 | AK-based Prestwick Library Screening Results, A. baumannii (fold increase in extracellular AK activity) [1, 11]: 1.3 | AK-based Prestwick Library Screening Results, E. cloacae (fold increase in extracellular AK activity) (E. cloacae; [11]): 1.4 | AK-based Prestwick Library Screening Results, S. aureus (fold increase in extracellular AK activity) [2, 11]: 1.2 | AK-based Prestwick Library Screening Results, P. aeruginosa (fold increase in extracellular AK activity) (P. aeruginosa; [11]): 1.2 | AK-based Prestwick Library Screening Results, K. pneumoniae (fold increase in extracellular AK activity) (K. pneumoniae; [11]): 1.0 | AK-based Prestwick Library Screening Results, E. coli (fold increase in extracellular AK activity) (E. coli; [11]): 1.2

C[C@H]1[C@H](C)CC[C@]2(C(=O)O)CC[C@]3(C)C(=CC[C@@H]4[C@@]5(C)CC[C@H](O)C(C)(C)[C@@H]5CC[C@]43C)[C@H]12 [Ursolic acid]
fold induction at 50 µM (E. faecium; [12]): 2.8 | fold induction at 50 µM [1, 13]: 0.5 | fold induction at 50 µM (E. cloacae; [14]): 0.5 | fold induction at 50 µM [2, 15]: 0.1 | fold induction at 50 µM (P. aeruginosa; [16]): 0.4 | fold induction at 50 µM (K. pneumoniae; [17]): 0.4 | fold induction at 50 µM (E. coli; [18]): 0.4

Nc1ncnc2c1ncn2[C@@H]1O[C@H](CO)[C@@H](O)[C@@H]1O [Vidarabine]
fold induction at 50 µM (E. faecium; [4]): 1.1 | fold induction at 50 µM [1, 5]: 1 | fold induction at 50 µM (E. cloacae; [6]): 1.8 | fold induction at 50 µM [2, 7]: 1.5 | fold induction at 50 µM (P. aeruginosa; [8]): 1 | fold induction at 50 µM (K. pneumoniae; [9]): 0.7 | fold induction at 50 µM (E. coli; [10]): 1.1

C=CC(N)CCC(=O)O (centres unmarked) [Vigabatrin]
fold induction at 50 µM (E. faecium; planktonic E. faecium, cutoff for positive-scoring molecules 3-fold increase, read-out: AK-based Prestwick Library Screening Results, E. faecium (increase in extracellular AK activity)): 0.9 | fold induction at 50 µM ([1]; planktonic A. baumannii, cutoff for positive-scoring molecules 3-fold increase, read-out: AK-based Prestwick Library Screening Results, A. baumannii (increase in extracellular AK activity)): 1.1 | fold induction at 50 µM (E. cloacae; planktonic E. cloacae, cutoff for positive-scoring molecules 3-fold increase, read-out: AK-based Prestwick Library Screening Results, E. cloacae (increase in extracellular AK activity)): 0.8 | fold induction at 50 µM ([2]; planktonic S. aureus, cutoff for positive-scoring molecules 3-fold increase, read-out: AK-based Prestwick Library Screening Results, S. aureus (increase in extracellular AK activity)): 0.7 | fold induction at 50 µM (P. aeruginosa; planktonic P. aeruginosa, cutoff for positive-scoring molecules 3-fold increase, read-out: AK-based Prestwick Library Screening Results, P. aeruginosa (increase in extracellular AK activity)): 0.9 | fold induction at 50 µM (K. pneumoniae; planktonic K. pneumoniae, cutoff for positive-scoring molecules 3-fold increase, read-out: AK-based Prestwick Library Screening Results, K. pneumoniae (increase in extracellular AK activity)): 0.8 | fold induction at 50 µM (E. coli; planktonic E. coli, cutoff for positive-scoring molecules 3-fold increase, read-out: AK-based Prestwick Library Screening Results, E. coli (increase in extracellular AK activity)): 1

CC[C@]12CCCN3CCc4c(n(c5ccccc45)[C@@](O)(C(=O)OC)C1)[C@@H]32 [Vincamine]
fold induction at 50 µM (E. faecium; [12]): 0.9 | fold induction at 50 µM [1, 13]: 0.9 | fold induction at 50 µM (E. cloacae; [14]): 1.2 | fold induction at 50 µM [2, 15]: 0.7 | fold induction at 50 µM (P. aeruginosa; [16]): 1 | fold induction at 50 µM (K. pneumoniae; [17]): 0.7 | fold induction at 50 µM (E. coli; [18]): 0.9

CCOC(=O)C1=C[C@]2(CC)CCCN3CCc4c(n1c1ccccc41)[C@@H]32 [Vinpocetine]
fold induction at 50 µM (E. faecium; [12]): 1 | fold induction at 50 µM [1, 13]: 0.9 | fold induction at 50 µM (E. cloacae; [14]): 1 | fold induction at 50 µM [2, 15]: 0.8 | fold induction at 50 µM (P. aeruginosa; [16]): 1 | fold induction at 50 µM (K. pneumoniae; [17]): 0.8 | fold induction at 50 µM (E. coli; [18]): 0.9
